The source of these data is publication PMC12332266 (Frontiers in Pharmacology, 2025).

Read-outs that look alike come from different tables or passages of the source.

Data set [1] concerns hiPSC-CM (iCell Cardiomyocytes^2). Nature of the data set: RTCA CardioECR assessment (impedance and electrophysiology parameters). As to the method:
(§1) Culture media change was performed every 2 days.
After seeding on fibronectin-coated xCELLigence ePlates (Agilent Technologies, Inc. Santa Clara, CA, USA), iCell^2 CM were monitored continuously through impedance electrodes. The following impedance parameters were measured: Cell Index (CI, measure of cell “health” and monolayer integrity), beating rate (BR) and amplitude (CI Amplitude, magnitude of contraction). Electrophysiology-like parameters (Field Potential Duration (FPD), considered as a surrogate for QT in in vivo studies, and Spike Amplitude (SA), depolarization induced by Na^+ channel opening) were measured starting from day 4–6, following the monolayer formation. […] All RTCA CardioECR data were double normalized (DMSO control and the baseline) with no further statistical group comparison for the normalized parameters. The variability of the data within the treatment groups was assessed by standard deviation.

Data set [2] has the same test system. Put plainly: Intracellular miRNA expression by RT-qPCR in hiPSC-CM pellets after 72-hour treatment. The note with it: for fold induction at 0.1 µM / fold induction at 0.3 µM / fold induction at 1 µM / fold induction at 3 µM: Homo sapiens, 72 h. The procedure:
as §1
Total RNA was extracted from hiPSC-CM using the miRNeasy 96 Kit (Qiagen, Hilden, Germany) following the manufacturer’s recommendations. After the extraction, RNA purity was assessed by NanoDrop™ 8000 Spectrophotometer (Thermo Fisher Scientific Inc.). 5–10 ng/μL of RNA per sample were reverse transcribed and pre-amplified by using the TaqMan™ Advanced miRNA cDNA Synthesis Kit (Thermo Fisher Scientific Inc.). The synthesized cDNA was used for RT-qPCR with selected TaqMan™ assays (Thermo Fischer Scientific Inc.). RT-qPCR was carried out following the Applied Biosciences TaqMan miRNA expression assay protocol on a ViiA7 instrument (Thermo Fisher Scientific, Inc.). […] Therefore, to maximize the number of drugs and concentrations, explored in the same study, we pooled the triplicates for intracellular profiling of miRNAs. Therefore, no statistical analysis was performed on the data of miRNA profiling in the pellets of hiPSC-CM.
Following RTCA CardioECR assessment, hiPSC-CM cell pellets were collected, and total RNA was extracted and purified to investigate miRNAs upregulation by RT-qPCR. […] For the initial assessment of intracellular miRNAs in 12 different treatments, encompassing various drug classes, we used a panel of 17 miRNAs, which we selected from the publicly available data focusing mainly on in vitro models and structural cardiotoxicants (Supplementary Table S2).

The conditions of data set [3]: ref extensive literature search, cited from earlier work.
[4] abbreviates: hiPSC-CM, 72-hour treatment, lowest concentration causing at least 20% change from baseline.
[5] abbreviates: read-out: hsa-miR-7-5p fold change.
Where [6] appears, read: read-out: hsa-miR-29a-5p fold change.
Where [7] appears, read: read-out: hsa-miR-96-5p fold change.
Where [8] appears, read: read-out: hsa-miR-126-3p fold change.
The mark [9] stands for this setting: read-out: hsa-miR-133b fold change.
Where [10] appears, read: read-out: hsa-miR-146b-5p fold change.
Where [11] appears, read: read-out: hsa-miR-182-5p fold change.
The mark [12] stands for this setting: read-out: hsa-miR-185-3p fold change.
Where [13] appears, read: read-out: hsa-miR-187-3p fold change.
Setting [14] is: read-out: hsa-miR-208b-3p fold change.
Where [15] appears, read: read-out: hsa-miR-365a-5p fold change.

Turning to `CS(=O)(=O)CCNCc1ccc(-c2ccc3ncnc(Nc4ccc(OCc5cccc(F)c5)c(Cl)c4)c3c2)o1` [Lapatinib], the “RTCA, MEC (CI)” value in data set [1] (hiPSC-CM, change ≥20%, Table 2) is reported as “ND (ND – not detected, magnitude of change was lower than 20% for CI/BR)”. In addition, in data set [1] (human, 72 h), the “Field Potential Duration MEC” value is reported as 0.1 µM and the “Spike Amplitude (SA) MEC” value turned out to be 0.1 µM. Besides, in data set [2], the “miRNAs hiPSC-CM pellet, MEC overall” value worked out at 0.1 µM and the “miRNAs upregulated at the MEC overall (hiPSC-CM pellet)” value (shortened to “miRNAs upregulated at the MEC overall”) was “miR-126-3p, miR-146b-5p, miR-182-5p, miR-187-3p”. The Cmax total in data set [3] (Supplementary Table 1) was 4180 nM. In data set [3] (Table 1), the Cmax total is 4180 nM.

Regarding `CC(=O)[C@]1(O)Cc2c(O)c3c(c(O)c2[C@@H](O[C@H]2C[C@H](N)[C@H](O)[C@H](C)O2)C1)C(=O)c1ccccc1C3=O` [Idarubicin], the “Cell index (CI) MEC” value in data set [1] (setting [4]) was found to be 0.1 µM. The “RTCA, MEC (CI)” value in data set [1] (hiPSC-CM, change ≥20%, Table 2) was 0.1 µM (CI, BR). In addition, in data set [1] (human, 72 h), the “Beating Rate MEC” value was 0.1 µM. For the same compound, in data set [1] (human, 72 h), the “Beating rate (BR) MEC” value is reported as 0.1 µM. In data set [1] (human, 72 h), the “Cell Index MEC” value was 0.1 µM. The “Contractility Amplitude MEC” value in data set [1] (human, 72 h) was found to be 1 µM. Besides, in data set [1] (human, 72 h), the “Field Potential Duration MEC” value is on record as 0.1 µM. For the same compound, in data set [1] (human, 72 h), the “RTCA, MEC (BR)” value is on record as 0.1 µM (CI, BR). In addition, in data set [1] (human, 72 h), the “Spike Amplitude (SA) MEC” value is 0.1 µM. The “miRNAs hiPSC-CM pellet, MEC overall” value in data set [2] worked out at 0.3 µM. Further, in data set [2], the “miRNAs upregulated at the MEC overall” value was “miR-96 -5p, miR-126-3p, miR-133b, miR-185-3p”. Besides, the fold induction at 0.1 µM in data set [2] (setting [5]) was found to be 4.5; in data set [2] (setting [6]), 1.2; in data set [2] (setting [7]), 9; in data set [2] (setting [8]) it was 1; in data set [2] (setting [9]) it was 0.5; in data set [2] (setting [10]), 3.5. In addition, the fold induction at 0.1 µM was 0.03 in data set [2] (setting [11]); 1.6 in data set [2] (setting [12]); 9 in data set [2] (setting [13]); 0.5 in data set [2] (setting [14]); 3.5 in data set [2] (setting [15]); 1 in data set [2] (read-out: hsa-miR-[…] change). In addition, the fold induction at 0.3 µM in data set [2] (setting [5]) was found to be 5.8; in data set [2] (setting [6]), 4.4; in data set [2] (setting [7]) it was 21.3; in data set [2] (setting [8]), 1.3; in data set [2] (setting [9]) it was 2.5; in data set [2] (setting [10]) it was 7.3. The fold induction at 0.3 µM in data set [2] (setting [11]) worked out at 0.1; in data set [2] (setting [12]), 1.3; in data set [2] (setting [13]), 8.5; in data set [2] (setting [14]), 0.6; in data set [2] (setting [15]) it was 2.1; in data set [2] (read-out: hsa-miR-[…] change), 1.1. Besides, the fold induction at 1 µM in data set [2] (setting [5]) was found to be 3.5; in data set [2] (setting [6]) it was 1.2; in data set [2] (setting [7]), 53.4; in data set [2] (setting [8]) it was 0.7; in data set [2] (setting [9]) it was 1.2; in data set [2] (setting [10]), 2. In addition, the fold induction at 1 µM in data set [2] (setting [11]) is 0.4; in data set [2] (setting [12]), 1; in data set [2] (setting [13]), 2.9; in data set [2] (setting [14]) it was 0.8; in data set [2] (setting [15]), 1.1; in data set [2] (read-out: hsa-miR-[…] change), 0.7. The fold induction at 3 µM in data set [2] (setting [5]) came to 0.2; in data set [2] (setting [6]), 3; in data set [2] (setting [7]) it was 0.8; in data set [2] (setting [8]), 1.1; in data set [2] (setting [9]), 10.9; in data set [2] (setting [10]) it was 3.4. Moreover, the fold induction at 3 µM worked out at 0.7 in data set [2] (setting [11]); 1.9 in data set [2] (setting [13]); 2 in data set [2] (setting [14]); 3.4 in data set [2] (setting [15]); 3.4 in data set [2] (read-out: hsa-miR-[…] change). Besides, the Cmax total in data set [3] (Supplementary Table 1) and in data set [3] (Table 1) was 120 to 3800 nM throughout.

`O=P1(N(CCCl)CCCl)NCCCO1` (centres unmarked) [Cyclophosphamide]: the “Beating rate (BR) MEC” value in data set [1] (setting [4]) is given as “ND (ND – not detected, magnitude of change was lower than 20%)”. For the same compound, in data set [1] (hiPSC-CM, change ≥20%, Table 2), the “RTCA, MEC (BR)” value is “ND (ND – not detected, magnitude of change was lower than 20% for CI/BR)” and the “RTCA, MEC (CI)” value is reported as “ND (ND – not detected, magnitude of change was lower than 20% for CI/BR)”. Also, in data set [2], the “miRNAs hiPSC-CM pellet, MEC overall” value is given as 3 µM (96-5p, 182-5p, 185-3p, 208b-3p) and the “miRNAs upregulated at the MEC overall” value was 3 µM (96-5p, 182-5p, 185-3p, 208b-3p). Besides, the Cmax total in data set [3] (Supplementary Table 1) was 126000 nM. For the same compound, in data set [3] (Table 1), the Cmax total is 126000 nM.

For `N=C(N)c1ccc(OCCCCCOc2ccc(C(=N)N)cc2)cc1` [Pentamidine], in data set [1] (human, 72 h), the “Beating Rate MEC” value stood at 3 µM, the “Beating rate (BR) MEC” value is given as 3 µM, the “Contractility Amplitude MEC” value is 0.1 µM and the “Field Potential Duration MEC” value is on record as 1 µM. In data set [1] (human, 72 h), the “RTCA, MEC (BR)” value is 3 µM (CI, BR); the “RTCA, MEC (CI)” value is reported as 3 µM (CI, BR); the “Spike Amplitude (SA) MEC” value amounted to 0.1 µM. Also, in data set [2], the “miRNAs hiPSC-CM pellet, MEC overall” value is 0.1 µM and the “miRNAs upregulated at the MEC overall” value is “miR-126-3p, miR-146b-5p, miR-208b-3p”. The Cmax total in data set [3] (Supplementary Table 1) was 1800 nM. In addition, the Cmax total in data set [3] (Table 1) was 1800 nM.

As for `CC(C)C[C@H](NC(=O)[C@H](Cc1ccccc1)NC(=O)c1cnccn1)B(O)O` [Bortezomib], the “RTCA, MEC (CI)” value in data set [1] (hiPSC-CM, change ≥20%, Table 2) turned out to be 0.03 µM. Also, in data set [1] (human, 72 h), the “Beating Rate MEC” value is listed as 0.1 µM, the “Beating rate (BR) MEC” value came to 0.1 µM, the “Contractility Amplitude MEC” value stood at 0.1 µM and the “Field Potential Duration MEC” value stood at 0.1 µM. In addition, the “Spike Amplitude (SA) MEC” value in data set [1] (human, 72 h) is on record as 0.1 µM. In data set [2], the “miRNAs hiPSC-CM pellet, MEC overall” value turned out to be 0.01 µM and the “miRNAs upregulated at the MEC overall” value is “miR-126-3p, miR-182-5p, miR-185-3p, miR-187-3p, miR-7-5p”. In addition, in data set [3] (Supplementary Table 1), the Cmax total was 140 to 2800 nM. The Cmax total in data set [3] (Table 1) was 140 to 2800 nM.
